From patent publication US20180296456A1, “Decapeptide-12 Modulation of Sirtuin Gene Expression in Epidermal Keratinocyte Progenitors” (Escape Therapeutics, Inc., priority 2017, published 2018)
Peptide text beside a SMILES is read from it.

Assays:
[1] = test system: SIRT1; test: SIRT1 transcription, semi-quantitative RT-PCR in human epidermal progenitors; type: cell-based; settings: 72 h
Procedure: (§1) Human neonatal epidermal progenitors (Thermo Fisher Scientific, NY) were seeded in 6-well plates at a density of 2×10^5 cells/well. Each well received 2 ml of Epilife media containing 60 μM calcium chloride (Thermo Fisher Scientific, NY). Plates were incubated in a humidified chamber at 37 degrees Celsius and 5 percent CO2. Twenty-four hours later, cells were treated with various concentrations of oxyresveratrol or decapeptide-12 dissolved in PBS containing 5 percent DMSO. Control wells received vehicle only (5 percent DMSO and PBS). Final concentration of DMSO in each well was 0.05 percent.
(§2) After a 72 hour incubation period, cells were trypsinized and total RNA extracted, using RNeasy kit (Qiagen, Valencia, Calif.) according to the manufacturer's protocol.
(§3) RNA concentration was determined using nanodrop (Thermo fisher scientific, NY). Two μg of total RNA were used to synthesize cDNA using oligo dT primers and TaqMan reverse transcription reagents (Thermo fisher scientific, NY). The reaction was carried out in DNA Engine Peltier Thermal Cycler (Bio-Rad, Hercules, Calif.). The annealing temperature was 25 degrees Celsius for 10 minutes, followed by first strand synthesis at 48 degrees Celsius for 1 hour, and heat inactivation at 95 degrees Celsius for 5 minutes.
(§4) The SIRT1-7 primers (table 1) were designed using Primer3. The semi-quantitative PCR reactions were performed on a DNA Engine Peltier Thermo Cycler (Bio-Rad, Hercules, Calif.). PCR was carried under the following conditions: denaturation at 94 degrees Celsius for 2 minutes and primer extension at 54 degrees Celsius for 30 seconds in 34 cycles for SIRT 1-7 and the housekeeping gene 18S.
(§5) Samples were run and resolved on a 1.5 percent agarose gel containing 0.5 μg/ml of ethidium bromide and imaged using the FluorChem HD2 Imaging System (Protein simple, San Jose, Calif.). Densitometry analysis was carried out using the AlphaEase FC software (Protein simple, San Jose, Calif.). Intensity ratios were calculated as the intensity value for each gene divided by the intensity value of the internal control gene 18S.
(§6) The effect of the decapeptides P4, P4A, P4B, and P4C upon the transcription levels of sirtuins 1-7 was evaluated. Table 4 summarizes transcription levels for all four decapeptides with the corresponding genes, at tested concentrations of: 10, 30, 50, 100, and 300 (all in μM).

[2] = test system: SIRT3; test: SIRT3 transcription, semi-quantitative RT-PCR in human epidermal progenitors; type: cell-based; settings: 72 h
Procedure: as §1, §2, §3, §4, §5, §6

[3] = test system: SIRT4; test: SIRT4 transcription, semi-quantitative RT-PCR in human epidermal progenitors; type: cell-based; settings: 72 h
Procedure: as §1, §2, §3, §4, §5, §6

[4] = test system: SIRT5; test: SIRT5 transcription, semi-quantitative RT-PCR in human epidermal progenitors; type: cell-based; settings: 72 h
Procedure: as §1, §2, §3, §4, §5, §6

[5] = test system: SIRT6; test: SIRT6 transcription, semi-quantitative RT-PCR in human epidermal progenitors; type: cell-based; settings: 72 h
Procedure: as §1, §2, §3, §4, §5, §6

[6] = test system: SIRT7; test: SIRT7 transcription, semi-quantitative RT-PCR in human epidermal progenitors; type: cell-based; settings: 72 h
Procedure: as §1, §2, §3, §4, §5, §6

[7] = MTT cell proliferation assay, fibroblasts; type: cell-based, human; settings: human, MTT, 72 h, read-out: fibroblast proliferation rate after 72 hours
Procedure: Proliferation rates for three human cell lines (epidermal progenitors, melanoblasts, and fibroblasts) were determined using a TACS® MTT Cell Proliferation Kit. Cells were seeded at 2.5×10^4/well in 96-well plates in a humidified atmosphere with 5 percent CO2 at 37 degrees Celsius. Twenty-four hours later, the decapeptides were added to the corresponding wells at varying concentrations and incubated for 72 hours. The remainder of the procedure was performed following the manufacturer's protocol.

[8] = Trypan blue cell viability, 7 days, epidermal progenitors; type: cell-based; settings: human, relative to control, read-out: epidermal progenitor viability after 7 days
Procedure: (§7) The effect of each of the decapeptides upon cell viability was also tested. In particular, cells were incubated with the decapeptide at various concentrations and then counted for viability relative to the control (untreated cells) using trypan blue. Cytotoxicity was measured according to the following formula:
(§8) [1−(# of cells in control−# of live cells in test sample)/# of cells in control]×100 percent.

[9] = Trypan blue cell viability, 7 days, melanoblasts; type: cell-based; settings: human, relative to control, read-out: melanoblast viability after 7 days
Procedure: as §7, §8

[10] = Trypan blue cell viability, 7 days, fibroblasts; type: cell-based; settings: human, relative to control, read-out: fibroblast viability after 7 days
Procedure: as §7, §8

CCCCCCCCCCCCCCCC(=O)N[C@@H](Cc1ccc(O)cc1)C(=O)N[C@@H](CCCNC(=N)N)C(=O)N[C@@H](CO)C(=O)N[C@@H](CCCNC(=N)N)C(=O)N[C@@H](CCCCN)C(=O)N[C@H](Cc1ccc(O)cc1)C(=O)N[C@@H](CO)C(=O)N[C@@H](CO)C(=O)N[C@@H](Cc1c[nH]c2ccccc12)C(=O)N[C@@H](Cc1ccc(O)cc1)C(N)=O [P4B, Palmitoyl-YRSRK[*Y]SSWY-amide] (HELM PEPTIDE1{[CCCCCCCCCCCCCCCC(=O)[*:2]].Y.R.S.R.K.[dY].S.S.W.Y.[am]}$$$$V2.0)
SIRT1 transcription increase relative to control ([1]; 10 μM): 10 ± 4%
SIRT1 transcription increase relative to control ([1]; 30 μM): 10 ± 3%
SIRT1 transcription increase relative to control ([1]; 50 μM): 48 ± 3%
SIRT1 transcription increase relative to control ([1]; 100 μM): 135 ± 12%
SIRT1 transcription increase relative to control ([1]; 300 μM): 155 ± 3%
SIRT3 transcription increase relative to control ([2]; 10 μM): 22 ± 3%
SIRT3 transcription increase relative to control ([2]; 30 μM): 23 ± 2%
SIRT3 transcription increase relative to control ([2]; 50 μM): 28 ± 5%
SIRT3 transcription increase relative to control ([2]; 100 μM): 78 ± 10%
SIRT3 transcription increase relative to control ([2]; 300 μM): 142 ± 5%
SIRT4 transcription increase relative to control ([3]; 10 μM): 9 ± 1%
SIRT4 transcription increase relative to control ([3]; 30 μM): 10 ± 1%
SIRT4 transcription increase relative to control ([3]; 50 μM): 17 ± 1%
SIRT4 transcription increase relative to control ([3]; 100 μM): 86 ± 6%
SIRT4 transcription increase relative to control ([3]; 300 μM): 49 ± 4%
SIRT5 transcription increase relative to control ([4]; 10 μM): 2.00%
SIRT5 transcription increase relative to control ([4]; 30 μM): 1.00%
SIRT5 transcription increase relative to control ([4]; 50 μM): 1.00%
SIRT5 transcription increase relative to control ([4]; 100 μM): 35 ± 3%
SIRT5 transcription increase relative to control ([4]; 300 μM): 29 ± 5%
SIRT6 transcription increase relative to control ([5]; 10 μM): 21 ± 5%
SIRT6 transcription increase relative to control ([5]; 30 μM): 22 ± 4%
SIRT6 transcription increase relative to control ([5]; 50 μM): 10 ± 4%
SIRT6 transcription increase relative to control ([5]; 100 μM): 107 ± 2%
SIRT6 transcription increase relative to control ([5]; 300 μM): 81 ± 4%
SIRT7 transcription increase relative to control ([6]; 10 μM): 20 ± 6%
SIRT7 transcription increase relative to control ([6]; 30 μM): 23 ± 5%
SIRT7 transcription increase relative to control ([6]; 50 μM): 54 ± 7%
SIRT7 transcription increase relative to control ([6]; 100 μM): 61 ± 7%
SIRT7 transcription increase relative to control ([6]; 300 μM): 103 ± 8%
viability at 72 h, 3 µM ([7]; 3 μM): 100%
viability at 72 h, 10 µM ([7]; 10 μM): 99 ± 1%
viability at 72 h, 30 µM ([7]; 30 μM): 99 ± 1%
viability at 72 h, 50 µM ([7]; 50 μM): 99 ± 1%
viability at 72 h, 100 µM ([7]; 100 μM): 98 ± 2%
viability at 72 h, 300 µM ([7]; 300 μM): 97 ± 2%
viability at 72 h, 500 µM ([7]; 500 μM): 96 ± 2%
viability at 72 h, 1000 µM ([7]; 1000 μM): 96 ± 2%
viability at 168 h, 3 µM ([8]; 3 μM): 100%
viability at 168 h, 10 µM ([8]; 10 μM): 99 ± 1%
viability at 168 h, 30 µM ([8]; 30 μM): 98.2 ± 1%
viability at 168 h, 50 µM ([8]; 50 μM): 98 ± 1%
viability at 168 h, 100 µM ([8]; 100 μM): 97 ± 1%
viability at 168 h, 300 µM ([8]; 300 μM): 96.5 ± 2%
viability at 168 h, 500 µM ([8]; 500 μM): 95.5 ± 2%
viability at 168 h, 1000 µM ([8]; 1000 μM): 94.5 ± 2%
viability at 168 h, 3 µM ([9]; 3 μM): 100%
viability at 168 h, 10 µM ([9]; 10 μM): 98.5 ± 1%
viability at 168 h, 30 µM ([9]; 30 μM): 97.8 ± 3%
viability at 168 h, 50 µM ([9]; 50 μM): 97.2 ± 2%
viability at 168 h, 100 µM ([9]; 100 μM): 96.3 ± 2%
viability at 168 h, 300 µM ([9]; 300 μM): 95.6 ± 2%
viability at 168 h, 500 µM ([9]; 500 μM): 94.6 ± 2%
viability at 168 h, 1000 µM ([9]; 1000 μM): 93.8 ± 2%
viability at 168 h, 3 µM ([10]; 3 μM): 100%
viability at 168 h, 10 µM ([10]; 10 μM): 98.8 ± 1%
viability at 168 h, 30 µM ([10]; 30 μM): 98.3 ± 1%
viability at 168 h, 50 µM ([10]; 50 μM): 97.6 ± 1%
viability at 168 h, 100 µM ([10]; 100 μM): 97.3 ± 2%
viability at 168 h, 300 µM ([10]; 300 μM): 96.5 ± 2%
viability at 168 h, 500 µM ([10]; 500 μM): 95.3 ± 3%
viability at 168 h, 1000 µM ([10]; 1000 μM): 94.2 ± 3%
